Counter-ions that a name gives are not always drawn. Like-named read-outs stand apart in the source and are kept apart here.
Columns and labels:
[1] = Aerosol performances by Andersen Cascade Impactor (Eur. Pharm. 2.09.18), HPLC quantification; assay type: physicochemical; conditions: Example 5 formulation, mean n = 2; for Delivered Dose: 63 μl valve, nominal 6 μg formoterol / 50 μg BDP per actuation; for Fine particle dose: ACI S3 to filter, particles ≦4.7 microns; for Fine particle fraction: ratio respirable dose / delivered dose
Method: This formulation was filled into an aluminum canister under pressure and fitted with a metering valve having a 63 μl metering chamber.
Quantification of beclometasone dipropionate (BDP) and formoterol fumarate dehydrate (FF) was performed using a HPLC method. The following parameters were determined: • i) delivered dose is calculated from the cumulative deposition in the ACI, divided by the number of actuations per experiment; • ii) respirable dose (fine particle dose=FPD) is obtained from the deposition from Stages 3 (S3) to filter (AF) of the ACI, corresponding to particles of diameter ≦4.7 microns, divided by the number of actuations per experiment; • iii) respirable fraction (fine particle fraction=FPF) which is the percent ratio between the respirable dose and the delivered dose; • iv) mass median aerodynamic diameter (MMAD) which is the diameter around which the mass aerodynamic diameters of the emitted particles are distributed equally; and • v) Geometric standard deviation (GSD) which is a measure of the spread of the aerodynamic particle size distribution.

[2] = Storage (chemical) stability of HFA134a/ethanol pMDI solution; assay type: physicochemical; conditions: BDP in ethanol/HFA134a mixture, room temperature
Method: However, although it has the apparent pH adjusted according to the teaching of WO 01/89480 for improving its chemical stability, due to the limited stability of formoterol in solution, said formulation can be stored for no longer than 15 months at a refrigerator temperature (from +2 to +8° C.) and for no longer than 5 months at room temperature.

Compound	change of formoterol fumarate dihydrate solubility in the presence of BDP (HFA227:ethanol 92.5:7.5 (w/w))	change of formoterol fumarate dihydrate solubility in the presence of BDP (HFA227:ethanol 97.3:2.7 (w/w))	Delivered Dose [1] [µg]	Fine particle dose [1] [µg]	GSD [1]	MMAD [1] [μm]	Fine particle fraction [1] [%]	storage time without significant degradation [2]
COc1ccc(C[C@@H](C)NC[C@H](O)c2ccc(O)c(NC=O)c2)cc1 (racemic) [formoterol fumarate dihydrate, 2′-hydroxy-5′-[(RS)-1-hydroxy-2{[(RS)-p-methoxy-α-methylphenethyl]amino}ethyl]formanilide]	does not change	does not change	3.9	2.3	1.5	2.0	59.3	
CCC(=O)OCC(=O)[C@@]1(OC(=O)CC)[C@@H](C)C[C@H]2[C@@H]3CCC4=CC(=O)C=C[C@]4(C)[C@@]3(Cl)[C@@H](O)C[C@@]21C [BDP, (8S,9R,10S,11S,13S,14S,16S,17R)-9-chloro-11-hydroxy-10,13,16-trimethyl-3-oxo-17-[2-(propionyloxy)acetyl]-6,7,8,9,10,11,12,13,14,15,16,17-dodecahydro-3H-cyclopenta[a]phenanthren-17-yl propionate]			46.0	30.0	2.2	1.1	64.0	at least 35 months

From patent US8420060B2, “Pharmaceutical aerosol formulations of formoterol and beclometasone dipropionate” (Chiesi Farmaceutici S.p.A., priority 2009, dated 2013)
